Publication PMC5645029 (Journal of medicinal chemistry, 2017)
“Also recorded” adds a separate entry of the source. Non-standard residues stand in square brackets, D forms with d. Residues, ends and D or L forms follow the SMILES beside them.

Columns and labels:
mMC3R [1] = target: T1, mMC3R (Mus musculus, UniProt P33033); experiment: AlphaScreen cAMP assay, antagonist activity; details: Schild paradigm, NDP-MSH
mMC5R [2] = target: T2, mMC5R (Mus musculus, UniProt P41149); experiment: cell-based
mMC4R [3] = target: T3, mMC4R (Mus musculus, UniProt P56450); details: for fold less potent at the MC4R compared to 1: antagonist potency relative to 1
mMC5R [4] = target: T2, mMC5R
mMC4R [5] = target: T3, mMC4R; experiment: AlphaScreen cAMP assay, agonist activity; details: up to 100 μM concentrations
mMC3R [6] = target: T1, mMC3R; experiment: AlphaScreen cAMP assay, agonist activity; details: up to 100 μM concentrations
mMC1R = mMC1R (Mus musculus, UniProt Q01727); experiment: AlphaScreen cAMP assay, agonist activity; details: up to 100 μM concentrations
Chain of mMC1R (Q01727 whole entry): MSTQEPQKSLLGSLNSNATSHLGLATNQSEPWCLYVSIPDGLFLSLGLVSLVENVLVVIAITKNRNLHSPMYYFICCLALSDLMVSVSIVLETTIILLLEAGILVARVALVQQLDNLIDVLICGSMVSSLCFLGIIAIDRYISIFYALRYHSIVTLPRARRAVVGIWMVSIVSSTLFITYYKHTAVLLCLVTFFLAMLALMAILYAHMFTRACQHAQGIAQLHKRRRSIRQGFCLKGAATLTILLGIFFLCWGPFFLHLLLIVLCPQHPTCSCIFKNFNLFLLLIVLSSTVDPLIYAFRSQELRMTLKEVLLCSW

T1 sequence (P33033 whole entry): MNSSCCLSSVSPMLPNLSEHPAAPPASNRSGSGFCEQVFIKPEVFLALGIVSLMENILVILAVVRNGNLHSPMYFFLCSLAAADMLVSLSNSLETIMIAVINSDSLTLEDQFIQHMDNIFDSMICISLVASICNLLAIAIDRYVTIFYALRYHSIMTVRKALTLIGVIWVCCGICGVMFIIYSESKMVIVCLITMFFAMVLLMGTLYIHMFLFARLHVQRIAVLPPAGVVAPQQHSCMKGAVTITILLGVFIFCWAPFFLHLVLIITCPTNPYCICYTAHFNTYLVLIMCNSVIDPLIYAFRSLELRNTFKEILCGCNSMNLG
T2 sequence (P41149 whole entry): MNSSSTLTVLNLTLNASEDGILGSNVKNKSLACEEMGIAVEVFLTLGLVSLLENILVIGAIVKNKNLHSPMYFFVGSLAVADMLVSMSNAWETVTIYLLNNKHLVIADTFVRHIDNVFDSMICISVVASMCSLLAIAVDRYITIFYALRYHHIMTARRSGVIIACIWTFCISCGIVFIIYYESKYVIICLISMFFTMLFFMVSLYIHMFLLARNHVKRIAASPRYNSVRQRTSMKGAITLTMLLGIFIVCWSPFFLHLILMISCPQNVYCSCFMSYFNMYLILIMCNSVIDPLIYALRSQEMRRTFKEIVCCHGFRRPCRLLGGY
T3 sequence (P56450 whole entry): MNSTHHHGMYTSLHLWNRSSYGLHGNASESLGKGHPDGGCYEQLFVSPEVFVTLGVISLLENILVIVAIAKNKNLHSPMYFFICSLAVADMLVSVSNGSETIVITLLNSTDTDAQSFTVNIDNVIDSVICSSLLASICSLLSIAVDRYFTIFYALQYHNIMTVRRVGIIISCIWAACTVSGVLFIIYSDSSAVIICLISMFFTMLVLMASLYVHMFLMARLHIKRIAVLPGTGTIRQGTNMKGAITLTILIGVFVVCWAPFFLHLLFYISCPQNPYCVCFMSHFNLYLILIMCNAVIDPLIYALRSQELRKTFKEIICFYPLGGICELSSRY

| Structure (SMILES) | antagonist activity at the MC3R (in words) (mMC3R [1]) | EC50 (mMC5R [2]) | fold less potent at the MC4R compared to 1 (mMC4R [3]) | activity at the MC5R (in words) (mMC5R [4]) | agonist activity at the MC4R (in words) (mMC4R [5]) | agonist activity at the MC3R (in words) (mMC3R [6]) | other results |
| --- | --- | --- | --- | --- | --- | --- | --- |
| C[C@@H]1NC(=O)[C@H](C)NC(=O)[C@H](Cc2ccccc2)NC(=O)[C@H](Cc2ccccc2)NC(=O)[C@H](CCCNC(=N)N)NC(=O)[C@@H]2CCCN2C(=O)[C@H]2CCCN2C(=O)[C@H](Cc2ccccc2)NC1=O [Peptide 3, c[Pro-Arg-Phe-Phe-Ala-Ala-Phe-DPro]] | did not possess antagonist activity | 0.25 µM | 8 fold |  |  |  |  |
| CC(C)C[C@@H]1NC(=O)[C@H](CC(N)=O)NC(=O)[C@H](Cc2ccccc2)NC(=O)[C@H](Cc2ccccc2)NC(=O)[C@H](CCCNC(=N)N)NC(=O)[C@@H]2CCCN2C(=O)[C@H]2CCCN2C(=O)[C@H](Cc2ccccc2)NC1=O [Peptide 22, c[Pro-Arg-Phe-Phe-Asn-Leu-Phe-DPro]] |  |  |  | no activity |  |  |  |
| N=C(N)NCCC[C@@H]1NC(=O)[C@@H]2CCCN2C(=O)[C@H]2CCCN2C(=O)[C@H](Cc2ccccc2)NC(=O)[C@H](CC(=O)O)NC(=O)[C@H](CC(N)=O)NC(=O)[C@H](Cc2ccccc2)NC(=O)[C@H](Cc2ccccc2)NC1=O [Peptide 16, c[Pro-Arg-Phe-Phe-Asn-Asp-Phe-DPro]] (cyclo(RFFNDF[dP]P)) | did not result in observable agonist or antagonist activity; also recorded: did not possess antagonist activity |  |  |  | did not result in observable agonist or antagonist activity | did not result in observable agonist or antagonist activity |  |
| C[C@@H]1NC(=O)[C@H](Cc2c[nH]cn2)NC(=O)[C@H](Cc2ccccc2)NC(=O)[C@H](Cc2ccccc2)NC(=O)[C@H](CCCNC(=N)N)NC(=O)[C@@H]2CCCN2C(=O)[C@H]2CCCN2C(=O)[C@H](Cc2ccccc2)NC1=O [Peptide 10, c[Pro-Arg-Phe-Phe-His-Ala-Phe-DPro]] |  | 0.01 µM |  |  | no agonist activity | no agonist activity | mMC5R inverse agonist, percent decrease from basal (mMC5R [4]): 10%; agonist activity at the MC1R (in words) (mMC1R): no agonist activity |
| C[C@@H]1NC(=O)[C@H](CC(=O)O)NC(=O)[C@H](Cc2ccccc2)NC(=O)[C@H](Cc2ccccc2)NC(=O)[C@H](CCCNC(=N)N)NC(=O)[C@@H]2CCCN2C(=O)[C@H]2CCCN2C(=O)[C@H](Cc2ccccc2)NC1=O [Peptide 7, c[Pro-Arg-Phe-Phe-Asp-Ala-Phe-DPro]] | did not possess antagonist activity |  |  |  | no agonist activity | no agonist activity | agonist activity at the MC1R (in words) (mMC1R): no agonist activity |
| CC[C@@H]1NC(=O)[C@H](Cc2ccccc2)NC(=O)[C@H](Cc2ccccc2)NC(=O)[C@H](CCCNC(=N)N)NC(=O)[C@@H]2CCCN2C(=O)[C@H]2CCCN2C(=O)[C@H](Cc2ccccc2)NC(=O)[C@H](C)NC1=O [Peptide 4, c[Pro-Arg-Phe-Phe-Abu-Ala-Phe-DPro]] | did not possess antagonist activity | 0.16 µM |  |  |  |  |  |
| CC(C)[C@@H]1NC(=O)[C@H](Cc2ccccc2)NC(=O)[C@H](Cc2ccccc2)NC(=O)[C@H](CCCNC(=N)N)NC(=O)[C@@H]2CCCN2C(=O)[C@H]2CCCN2C(=O)[C@H](Cc2ccccc2)NC(=O)[C@H](C)NC1=O [Peptide 13, c[Pro-Arg-Phe-Phe-Val-Ala-Phe-DPro]] |  | 0.51 µM | at least 8 fold |  |  |  |  |
| CC(C)C[C@@H]1NC(=O)[C@H](Cc2ccccc2)NC(=O)[C@H](Cc2ccccc2)NC(=O)[C@H](CCCNC(=N)N)NC(=O)[C@@H]2CCCN2C(=O)[C@H]2CCCN2C(=O)[C@H](Cc2ccccc2)NC(=O)[C@H](C)NC1=O [Peptide 12, c[Pro-Arg-Phe-Phe-Leu-Ala-Phe-DPro]] (cyclo(RFFLAF[dP]P)) |  | 0.11 µM | at least 8 fold |  |  |  |  |
| N=C(N)NCCC[C@@H]1NC(=O)[C@@H]2CCCN2C(=O)[C@H]2CCCN2C(=O)[C@H](Cc2ccccc2)NC(=O)[C@H](CCC(=O)O)NC(=O)[C@H](CC(N)=O)NC(=O)[C@H](Cc2ccccc2)NC(=O)[C@H](Cc2ccccc2)NC1=O [Peptide 17, c[Pro-Arg-Phe-Phe-Asn-Glu-Phe-DPro]] (cyclo(RFFNEF[dP]P)) | did not result in observable agonist or antagonist activity; also recorded: did not possess antagonist activity |  |  | no activity | did not result in observable agonist or antagonist activity | did not result in observable agonist or antagonist activity |  |
| CCCC[C@@H]1NC(=O)[C@H](Cc2ccccc2)NC(=O)[C@H](Cc2ccccc2)NC(=O)[C@H](CCCNC(=N)N)NC(=O)[C@@H]2CCCN2C(=O)[C@H]2CCCN2C(=O)[C@H](Cc2ccccc2)NC(=O)[C@H](C)NC1=O [Peptide 11, c[Pro-Arg-Phe-Phe-Nle-Ala-Phe-DPro]] |  |  | at least 8 fold | no activity |  |  |  |
| N=C(N)NCCC[C@@H]1NC(=O)[C@@H]2CCCN2C(=O)[C@H]2CCCN2C(=O)[C@H](Cc2ccccc2)NC(=O)[C@H](Cc2ccccc2)NC(=O)[C@H](CC(N)=O)NC(=O)[C@H](Cc2ccccc2)NC(=O)[C@H](Cc2ccccc2)NC1=O [Peptide 20, c[Pro-Arg-Phe-Phe-Asn-Phe-Phe-DPro]] |  |  |  | partially stimulated |  |  |  |
| C[C@@H]1NC(=O)[C@H](CCC(=O)O)NC(=O)[C@H](Cc2ccccc2)NC(=O)[C@H](Cc2ccccc2)NC(=O)[C@H](CCCNC(=N)N)NC(=O)[C@@H]2CCCN2C(=O)[C@H]2CCCN2C(=O)[C@H](Cc2ccccc2)NC1=O [Peptide 8, c[Pro-Arg-Phe-Phe-Glu-Ala-Phe-DPro]] | did not result in measurable activity | 0.7 µM | 16 fold |  |  | did not result in measurable activity |  |
| C[C@@H]1NC(=O)[C@H]([C@@H](C)O)NC(=O)[C@H](Cc2ccccc2)NC(=O)[C@H](Cc2ccccc2)NC(=O)[C@H](CCCNC(=N)N)NC(=O)[C@@H]2CCCN2C(=O)[C@H]2CCCN2C(=O)[C@H](Cc2ccccc2)NC1=O [Peptide 6, c[Pro-Arg-Phe-Phe-Thr-Ala-Phe-DPro]] (cyclo(RFFTAF[dP]P)) |  | 0.05 µM |  |  | No agonist activity | No agonist activity | agonist activity at the MC1R (in words) (mMC1R): No agonist activity; fold more potent at the MC4R compared to 13 (mMC4R [3]; antagonist potency relative to 13): 70 fold |
| C[C@@H]1NC(=O)[C@H](Cc2ccccc2)NC(=O)[C@H](Cc2ccccc2)NC(=O)[C@H](Cc2ccccc2)NC(=O)[C@H](CCCNC(=N)N)NC(=O)[C@@H]2CCCN2C(=O)[C@H]2CCCN2C(=O)[C@H](Cc2ccccc2)NC1=O [Peptide 14, c[Pro-Arg-Phe-Phe-Phe-Ala-Phe-DPro]] |  |  |  | no activity |  |  |  |
